Experiment [1] has as its target T1, ALA2 (aminophospholipid ATPase 2) (Arabidopsis thaliana, UniProt P98205).
T1 sequence (P98205 1-1107): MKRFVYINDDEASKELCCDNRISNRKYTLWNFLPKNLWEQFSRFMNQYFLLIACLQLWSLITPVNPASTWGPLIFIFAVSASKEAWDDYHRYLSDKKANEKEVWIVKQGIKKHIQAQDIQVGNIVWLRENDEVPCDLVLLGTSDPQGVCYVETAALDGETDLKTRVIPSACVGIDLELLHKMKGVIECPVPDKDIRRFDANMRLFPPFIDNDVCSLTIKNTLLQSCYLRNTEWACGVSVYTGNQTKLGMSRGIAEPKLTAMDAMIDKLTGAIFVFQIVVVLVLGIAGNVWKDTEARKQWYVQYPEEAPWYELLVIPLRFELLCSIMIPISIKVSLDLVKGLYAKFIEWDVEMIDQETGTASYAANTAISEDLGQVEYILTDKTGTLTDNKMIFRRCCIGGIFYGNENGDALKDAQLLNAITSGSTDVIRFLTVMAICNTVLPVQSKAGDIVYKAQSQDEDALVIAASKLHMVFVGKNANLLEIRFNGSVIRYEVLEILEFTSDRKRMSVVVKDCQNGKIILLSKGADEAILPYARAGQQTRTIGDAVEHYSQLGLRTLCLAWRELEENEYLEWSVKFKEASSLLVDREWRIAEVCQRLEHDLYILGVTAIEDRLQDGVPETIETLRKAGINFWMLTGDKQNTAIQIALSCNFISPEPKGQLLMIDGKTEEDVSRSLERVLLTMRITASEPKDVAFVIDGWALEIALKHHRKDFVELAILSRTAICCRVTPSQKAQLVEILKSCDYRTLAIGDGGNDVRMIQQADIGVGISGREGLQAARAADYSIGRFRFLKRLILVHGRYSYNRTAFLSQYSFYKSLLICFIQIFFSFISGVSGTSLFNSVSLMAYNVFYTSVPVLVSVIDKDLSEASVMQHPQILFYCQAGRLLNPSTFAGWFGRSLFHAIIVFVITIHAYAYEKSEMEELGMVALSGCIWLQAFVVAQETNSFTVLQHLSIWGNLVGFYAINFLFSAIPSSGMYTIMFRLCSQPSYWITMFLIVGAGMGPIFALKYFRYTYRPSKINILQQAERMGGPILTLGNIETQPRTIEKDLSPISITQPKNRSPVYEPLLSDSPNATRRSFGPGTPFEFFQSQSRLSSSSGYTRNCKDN
T1 sequence (Q8L8W0 2-350 partner): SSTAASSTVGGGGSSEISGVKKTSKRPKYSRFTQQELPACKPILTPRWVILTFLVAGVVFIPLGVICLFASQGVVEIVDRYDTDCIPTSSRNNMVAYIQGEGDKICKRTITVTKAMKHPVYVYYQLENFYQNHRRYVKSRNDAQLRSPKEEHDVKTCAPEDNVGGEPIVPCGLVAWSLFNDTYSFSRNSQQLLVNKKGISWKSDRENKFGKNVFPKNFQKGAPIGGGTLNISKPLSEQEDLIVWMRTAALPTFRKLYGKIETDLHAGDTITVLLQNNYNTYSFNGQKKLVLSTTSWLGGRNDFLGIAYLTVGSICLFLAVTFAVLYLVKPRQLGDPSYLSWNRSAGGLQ
In words: lipid-stimulated ATPase activity of purified complex. In kind it is biochemical.

For experiment [2], the target named is T1, ALA2 (aminophospholipid ATPase 2). Described as above. The format is biochemical. The source holds these as a separate data set.
For experiment [3] the target is unchanged.

Take `CCCCCCCCCCCCCCCC(=O)OC[C@@H](O)COP(=O)(O)OC[C@H](N)C(=O)O` [Lyso-PS, 1-hexadecanoyl-sn-glycero-3-phospho-L-serine]: it took 34 ± 7 µM to reach a half-maximal effect in experiment [1] (EC50).

Turning to `CCCCCCCC/C=C\CCCCCCCC(=O)O[C@H](COC(=O)CCCCCCCCCCCCCCC)COP(=O)(O)OC[C@@H](N)C(=O)O` [P-D-S, 1-palmitoyl-2-oleoyl-sn-glycero-3-phospho-D-serine], the “lipid-stimulated ATPase activity of purified complex” value in experiment [2] is on record as “The stereoisomer phosphatidyl-D-serine (P-D-S) was less than half as effective at stimulating ATPase activity compared with PS”.

For `[O]=[V]([OH])([OH])[OH]` [orthovanadate], the IC50 (usually the point on the concentration scale where inhibition reaches its midpoint) in experiment [3] is ~22 µM.

These data come from paper PMC6402034 (Biochemical Journal, 2019).
